Results reported in patent publication US20240150377A1, “MODULATORS OF CYSTIC FIBROSIS TRANSMEMBRANE CONDUCTANCE REGULATOR” (VERTEX PHARMACEUTICALS INCORPORATED, priority 2020, published 2024).

Target: T1, CFTR (Homo sapiens, UniProt P13569, DEL508-508)
T1 construct: endogenous in cells; host or cells: primary human bronchial epithelial cells from CF subjects (F508del/MF-HBE), differentiated at air-liquid interface
Experiment: HBE2 assay: Ussing chamber assay of CFTR-mediated short-circuit currents
Format: cell-based
Settings: F508del/MF-HBE cells, with 44 nM potentiator, 18-24 hours, 20% human serum; for Emax: read-out: HBE2 Max activity (%)
Experimental: Ussing Chamber Assay of CFTR-Mediated Short-Circuit Currents
After four days the apical media was removed, and the cells were grown at an air liquid interface for >14 days prior to use.
To isolate the CFTR-mediated short-circuit (ISC) current, F508del/MF-HBE grown on Costar® Snapwell™ cell culture inserts were mounted in an Ussing chamber and the transepithelial ISC was measured under voltage-clamp recording conditions (Vhold=0 mV) at 37° C. […] The CFTR-mediated ISC (μA/cm^2) for each condition was determined from the peak forskolin response to the steady-state current following inhibition.
Identification of Corrector Compounds
The activity of the CFTR corrector compounds on the CFTR-mediated ISC was determined in Ussing chamber studies as described above.

T1 sequence (P13569 with tags, fused parts or gaps DEL508-508): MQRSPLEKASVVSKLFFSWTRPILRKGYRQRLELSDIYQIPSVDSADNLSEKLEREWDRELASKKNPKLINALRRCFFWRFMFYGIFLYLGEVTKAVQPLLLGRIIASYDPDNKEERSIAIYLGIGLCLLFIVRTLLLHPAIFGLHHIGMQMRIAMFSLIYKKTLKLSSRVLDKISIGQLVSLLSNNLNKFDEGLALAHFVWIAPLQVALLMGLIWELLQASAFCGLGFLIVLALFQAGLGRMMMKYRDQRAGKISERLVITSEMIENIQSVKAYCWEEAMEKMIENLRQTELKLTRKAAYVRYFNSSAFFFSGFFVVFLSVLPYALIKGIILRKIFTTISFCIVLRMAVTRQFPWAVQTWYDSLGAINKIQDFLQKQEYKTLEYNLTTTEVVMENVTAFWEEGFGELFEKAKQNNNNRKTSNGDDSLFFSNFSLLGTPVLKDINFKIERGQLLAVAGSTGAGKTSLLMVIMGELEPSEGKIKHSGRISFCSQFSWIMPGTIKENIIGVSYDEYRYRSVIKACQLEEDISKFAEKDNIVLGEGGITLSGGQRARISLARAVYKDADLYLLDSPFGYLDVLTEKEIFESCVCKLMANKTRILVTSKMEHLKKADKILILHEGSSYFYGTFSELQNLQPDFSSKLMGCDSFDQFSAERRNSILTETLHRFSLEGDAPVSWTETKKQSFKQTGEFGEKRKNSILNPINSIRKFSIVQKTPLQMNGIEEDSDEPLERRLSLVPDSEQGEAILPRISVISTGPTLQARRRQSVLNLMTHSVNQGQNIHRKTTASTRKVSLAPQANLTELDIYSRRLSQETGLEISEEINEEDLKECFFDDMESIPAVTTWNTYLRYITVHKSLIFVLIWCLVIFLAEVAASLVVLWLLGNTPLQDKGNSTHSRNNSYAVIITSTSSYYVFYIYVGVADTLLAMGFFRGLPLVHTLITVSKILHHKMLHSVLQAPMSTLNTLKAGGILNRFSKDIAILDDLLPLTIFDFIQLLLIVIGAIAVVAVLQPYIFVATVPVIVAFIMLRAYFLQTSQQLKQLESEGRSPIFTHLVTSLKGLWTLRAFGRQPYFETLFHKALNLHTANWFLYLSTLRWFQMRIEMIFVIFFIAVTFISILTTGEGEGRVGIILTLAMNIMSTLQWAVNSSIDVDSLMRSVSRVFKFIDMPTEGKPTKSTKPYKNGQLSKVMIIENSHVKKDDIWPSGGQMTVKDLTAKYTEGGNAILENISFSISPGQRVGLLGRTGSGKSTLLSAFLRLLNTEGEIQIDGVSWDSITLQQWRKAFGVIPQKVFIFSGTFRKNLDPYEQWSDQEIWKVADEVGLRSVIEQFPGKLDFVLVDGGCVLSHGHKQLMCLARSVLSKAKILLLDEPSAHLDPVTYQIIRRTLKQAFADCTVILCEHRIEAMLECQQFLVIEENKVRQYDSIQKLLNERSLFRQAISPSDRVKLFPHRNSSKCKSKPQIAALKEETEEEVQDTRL

SMILES	HBE2 Activity at 3 μM (%) (3 μM)	HBE2 Activity at 3 μM (%) (3 μM corrector)	also measured
Cc1cccc(C)c1-c1cc2nc(n1)NS(=O)(=O)c1cccc(c1)C(=O)N(Cc1cncc(N3CCC4NC(=O)CC43)n1)[C@H](CC(C)(C)C)CO2 (stereo in doubt) [Compound 1622]	++ (++ is 30-60%)	–	–
Cc1cccc(C)c1-c1cc2nc(n1)NS(=O)(=O)c1cccc(c1)C(=O)N(Cc1cncc(N3CC4OCC[C@@H]43)n1)[C@H](CC(C)(C)C)CO2 (stereo in doubt) [Compound 1628]	+++ (+++ is >60+)	–	–
Cc1cccc(C)c1-c1cc2nc(n1)NS(=O)(=O)c1cccc(c1)C(=O)N(Cc1cncc(N3CC4OCC[C@@H]43)n1)[C@H](CC(C)(C)C)CO2 (stereo in doubt) [Compound 1629]	+++ (+++ is >60+)	–	–
CO[C@H]1C[C@H](CN(C)c2cncc(CN3C(=O)c4cccc(c4)S(=O)(=O)Nc4nc(cc(-c5c(C)cccc5C)n4)OC[C@H]3CC(C)(C)C)n2)C1 (stereo in doubt) [Compound 1632]	+++ (+++ is >60+)	–	EC50: < 1000 nM; Emax: > 60%
CO[C@H](C)CN(C)c1cncc(CN2C(=O)c3cccc(c3)S(=O)(=O)Nc3nc(cc(-c4c(C)cccc4C)n3)OC[C@H]2CC(C)(C)C)n1 (stereo in doubt) [Compound 1634]	+++ (+++ is >60+)	–	–
Cc1cccc(C)c1-c1cc2nc(n1)NS(=O)(=O)c1cccc(c1)C(=O)N(Cc1cncc(N3CC[C@H]3C3CCC3)n1)[C@H](CC(C)(C)C)CO2 (stereo in doubt) [Compound 1637]	+++ (+++ is >60+)	–	–
Cc1cccc(C)c1-c1cc2nc(n1)NS(=O)(=O)c1cccc(c1)C(=O)N(Cc1cncc(N3CC[C@H]4C3CC(=O)N4C)n1)[C@H](CC(C)(C)C)CO2 (stereo in doubt) [Compound 1640]	+++ (+++ is >60+)	–	–
Cc1cccc(C)c1-c1cc2nc(n1)NS(=O)(=O)c1cccc(c1)C(=O)N(Cc1cncc(N3CC[C@@H]4CN(C(=O)OC(C)(C)C)CC43)n1)[C@H](CC(C)(C)C)CO2 (stereo in doubt) [Compound 1649]	+++ (+++ is >60+)	–	–
CC(=O)N1CC2[C@@H](CCN2c2cncc(CN3C(=O)c4cccc(c4)S(=O)(=O)Nc4nc(cc(-c5c(C)cccc5C)n4)OC[C@H]3CC(C)(C)C)n2)C1 (stereo in doubt) [Compound 1663]	+++ (+++ is >60+)	–	–
Cc1cccc(C)c1-c1cc2nc(n1)NS(=O)(=O)c1cccc(c1)C(=O)N(Cc1cncc(N3CC[C@H]4CN(C(=O)OC(C)C)CC43)n1)[C@H](CC(C)(C)C)CO2 (stereo in doubt) [Compound 1664]	+++ (+++ is >60+)	–	–
CC[C@@H](C)N(C)c1cncc(CN2C(=O)c3cccc(c3)S(=O)(=O)Nc3nc(cc(-c4c(C)cccc4C)n3)OC[C@H]2CC(C)(C)C)n1 (stereo in doubt) [Compound 1672]	+++ (+++ is >60+)	–	EC50: < 1000 nM; Emax: > 60%
Cc1cccc(C)c1-c1cc2nc(n1)NS(=O)(=O)c1cccc(c1)C(=O)N(Cc1cncc(N3C(=O)CCC3C(C)C)n1)[C@H](CC(C)(C)C)CO2 (stereo in doubt) [Compound 1675]	+++ (+++ is >60+)	–	–
Cc1cccc(C)c1-c1cc2nc(n1)NS(=O)(=O)c1cccc(c1)C(=O)N(Cc1cncc(N(C)[C@@H]3CC4COCC43)n1)[C@H](CC(C)(C)C)CO2 (stereo in doubt) [Compound 1676]	+++ (+++ is >60+)	–	–
Cc1cccc(C)c1-c1cc2nc(n1)NS(=O)(=O)c1cccc(c1)C(=O)N(Cc1cncc(N(C)[C@@H]3C[C@H]4COC[C@H]43)n1)[C@H](CC(C)(C)C)CO2 (stereo in doubt) [Compound 1677]	+++ (+++ is >60+)	–	–
Cc1cccc(C)c1-c1cc2nc(n1)NS(=O)(=O)c1cccc(c1)C(=O)N(Cc1cncc(N3CCC[C@H]4COC[C@H]43)n1)[C@H](CC(C)(C)C)CO2 (stereo in doubt) [Compound 1679]	+++ (+++ is >60+)	–	–
Cc1cccc(C)c1-c1cc2nc(n1)NS(=O)(=O)c1cccc(c1)C(=O)N(Cc1cncc(N3CCC(C)(C)[C@H]3C)n1)[C@H](CC(C)(C)C)CO2 (stereo in doubt) [Compound 1723]	–	+++ (+++ is >60+)	–
Cc1cccc(C)c1-c1cc2nc(n1)NS(=O)(=O)c1cccc(c1)C(=O)N(Cc1cncc(N(C)C3CCC3)n1)[C@@H]1CN(CC(C)(C)C)CC1O2 (stereo in doubt) [Compound 1740]	–	++ (++ is 30-60%)	–
Cc1cccc(C)c1-c1cc2nc(n1)NS(=O)(=O)c1cccc(c1)C(=O)N(Cc1cncc(N3CCC[C@H]4CC[C@H]43)n1)[C@H](CCC(C)C)CO2 (stereo in doubt) [Compound 1746]	–	+++ (+++ is >60+)	–
Cc1cccc(C)c1-c1cc2nc(n1)NS(=O)(=O)c1cccc(c1)C(=O)N(Cc1cncc(N3CC(C)(C)[C@H]3C(C)C)n1)[C@H](CC(C)(C)C)CO2 (stereo in doubt) [Compound 1751]	–	+++ (+++ is >60+)	–

SMILES	HBE2 Activity at 3 μM (%) (3 μM)	HBE2 Activity at 3 μM (%) (3 μM corrector)	also measured
Cc1cccc(C)c1-c1cc2nc(n1)NS(=O)(=O)c1cccc(c1)C(=O)N(Cc1cncc(N3CCO[C@@H](C)[C@H]3C)n1)[C@H](CC(C)(C)C)CO2 (stereo in doubt) [Compound 1760]	–	+++ (+++ is >60+)	–
Cc1cccc(C)c1-c1cc2nc(n1)NS(=O)(=O)c1cccc(c1)C(=O)N(Cc1cncc(N(C)C3CCC3)n1)[C@@H]1CCN(CC(C)(C)C)CC1O2 (stereo in doubt) [Compound 1765]	–	++ (++ is 30-60%)	–
Cc1cccc(C)c1-c1cc2nc(n1)NS(=O)(=O)c1cccc(c1)C(=O)N(Cc1cncc(N(C)[C@@H]3CC[C@H]3C)n1)[C@H](CC(C)(C)C)CO2 (stereo in doubt) [Compound 1772]	–	+++ (+++ is >60+)	–
Cc1cccc(C)c1-c1cc2nc(n1)NS(=O)(=O)c1cccc(c1)C(=O)N(Cc1cncc(N(C)[C@H]3CC[C@@H]3C)n1)[C@H](CC(C)(C)C)CO2 (stereo in doubt) [Compound 1773]	–	+++ (+++ is >60+)	–
Cc1cccc(C)c1-c1cc2nc(n1)NS(=O)(=O)c1cccc(c1)C(=O)N(Cc1cncc(N3CCCC4CCC43)n1)[C@H](CCC(C)(C)C)CO2 (stereo in doubt) [Compound 1781]	–	+++ (+++ is >60+)	–
Cc1cccc(C)c1-c1cc2nc(n1)NS(=O)(=O)c1cccc(c1)C(=O)N(Cc1cncc(N3CCCC4CCC43)n1)[C@H](CCC(C)(C)C)CO2 (stereo in doubt) [Compound 1782]	–	+++ (+++ is >60+)	–
Cc1cccc(C)c1-c1cc2nc(n1)NS(=O)(=O)c1cccc(c1)C(=O)N(Cc1cncc(N3C[C@H]4CCCCC43)n1)[C@H](CC(C)(C)C)CO2 (stereo in doubt) [Compound 1799]	–	+++ (+++ is >60+)	–
Cc1cccc(C)c1-c1cc2nc(n1)NS(=O)(=O)c1cccc(c1)C(=O)N(Cc1cncc(N3CCCC4CCC43)n1)[C@H](CC1CC1)CO2 (stereo in doubt) [Compound 1838]	–	+++ (+++ is >60+)	–
Cc1cccc(C)c1-c1cc2nc(n1)NS(=O)(=O)c1cccc(c1)C(=O)N(Cc1cncc(N3CC[C@@H]3C)n1)[C@H](CC1CCCC1)CO2 (stereo in doubt) [Compound 1843]	–	+++ (+++ is >60+)	–
Cc1cccc(C)c1-c1cc2nc(n1)NS(=O)(=O)c1cccc(c1)C(=O)N(Cc1cncc(N3CC[C@H]4CC[C@H]43)n1)[C@H](CCC(C)(C)C)CO2 (stereo in doubt) [Compound 1855]	–	+++ (+++ is >60+)	–
COC[C@H]1CCCCN1c1cncc(CN2C(=O)c3cccc(c3)S(=O)(=O)Nc3nc(cc(-c4c(C)cccc4C)n3)OC[C@H]2CCC(C)(C)C)n1 (stereo in doubt) [Compound 1856]	–	+++ (+++ is >60+)	–
Cc1cccc(C)c1-c1cc2nc(n1)NS(=O)(=O)c1cccc(c1)C(=O)N(Cc1cncc(C3CCCCO3)n1)[C@H](CCC(C)(C)C)CO2 (stereo in doubt) [Compound 1880]	–	+++ (+++ is >60+)	–
Cc1cccc(C)c1-c1cc2nc(n1)NS(=O)(=O)c1cccc(c1)C(=O)N(Cc1cncc(C3CCCCO3)n1)[C@H](CCC(C)(C)C)CO2 (stereo in doubt) [Compound 1881]	–	+++ (+++ is >60+)	–
Cc1cccc(C)c1-c1cc2nc(n1)NS(=O)(=O)c1cccc(c1)C(=O)N(Cc1cncc(N3CC[C@@H]3C(C)C)n1)[C@H](CC1CCCCC1)CO2 (stereo in doubt) [Compound 1887]	–	+++ (+++ is >60+)	–
CC[C@H]1CCCN1c1cncc(CN2C(=O)c3cccc(c3)S(=O)(=O)Nc3nc(cc(-c4c(C)cccc4C)n3)OC[C@H]2COC2CC2)n1 (stereo in doubt) [Compound 1890]	–	+++ (+++ is >60+)	–
Cc1cccc(C)c1-c1cc2nc(n1)NS(=O)(=O)c1cccc(c1)C(=O)N(Cc1cncc(N3CCC[C@@H]3C3CC3)n1)[C@H](COC1CC1)CO2 (stereo in doubt) [Compound 1891]	–	+++ (+++ is >60+)	–
Cc1cccc(C)c1-c1cc2nc(n1)NS(=O)(=O)c1cccc(c1)C(=O)N(Cc1cncc(N3CCC[C@@H]3C)n1)[C@H](COC1CC1)CO2 (stereo in doubt) [Compound 1892]	–	+++ (+++ is >60+)	–
COCC1CCN1c1cncc(CN2C(=O)c3cccc(c3)S(=O)(=O)Nc3nc(cc(-c4c(C)cccc4C)n3)OC[C@H]2COC2CC2)n1 (stereo in doubt) [Compound 1894]	–	+++ (+++ is >60+)	–
